Test results: the Kinase Knowledgebase extract (Sharma et al. 2016)

Experiments:
[1] = target: EGFR (human) (UniProt P00533); settings: a431
[2] = target: EGFR (human), P00533 [Antiproliferation of H195 Cells Having Overexpressed EGFR T790 Mutant Kinase]
[3] = target: EGFR (human), P00533 [Assessment of EGFR T790 Mutant Kinase Activity]
[4] = target: EGFR (human) (UniProt P00533)

Chain of EGFR (human) (P00533 whole entry, looked up): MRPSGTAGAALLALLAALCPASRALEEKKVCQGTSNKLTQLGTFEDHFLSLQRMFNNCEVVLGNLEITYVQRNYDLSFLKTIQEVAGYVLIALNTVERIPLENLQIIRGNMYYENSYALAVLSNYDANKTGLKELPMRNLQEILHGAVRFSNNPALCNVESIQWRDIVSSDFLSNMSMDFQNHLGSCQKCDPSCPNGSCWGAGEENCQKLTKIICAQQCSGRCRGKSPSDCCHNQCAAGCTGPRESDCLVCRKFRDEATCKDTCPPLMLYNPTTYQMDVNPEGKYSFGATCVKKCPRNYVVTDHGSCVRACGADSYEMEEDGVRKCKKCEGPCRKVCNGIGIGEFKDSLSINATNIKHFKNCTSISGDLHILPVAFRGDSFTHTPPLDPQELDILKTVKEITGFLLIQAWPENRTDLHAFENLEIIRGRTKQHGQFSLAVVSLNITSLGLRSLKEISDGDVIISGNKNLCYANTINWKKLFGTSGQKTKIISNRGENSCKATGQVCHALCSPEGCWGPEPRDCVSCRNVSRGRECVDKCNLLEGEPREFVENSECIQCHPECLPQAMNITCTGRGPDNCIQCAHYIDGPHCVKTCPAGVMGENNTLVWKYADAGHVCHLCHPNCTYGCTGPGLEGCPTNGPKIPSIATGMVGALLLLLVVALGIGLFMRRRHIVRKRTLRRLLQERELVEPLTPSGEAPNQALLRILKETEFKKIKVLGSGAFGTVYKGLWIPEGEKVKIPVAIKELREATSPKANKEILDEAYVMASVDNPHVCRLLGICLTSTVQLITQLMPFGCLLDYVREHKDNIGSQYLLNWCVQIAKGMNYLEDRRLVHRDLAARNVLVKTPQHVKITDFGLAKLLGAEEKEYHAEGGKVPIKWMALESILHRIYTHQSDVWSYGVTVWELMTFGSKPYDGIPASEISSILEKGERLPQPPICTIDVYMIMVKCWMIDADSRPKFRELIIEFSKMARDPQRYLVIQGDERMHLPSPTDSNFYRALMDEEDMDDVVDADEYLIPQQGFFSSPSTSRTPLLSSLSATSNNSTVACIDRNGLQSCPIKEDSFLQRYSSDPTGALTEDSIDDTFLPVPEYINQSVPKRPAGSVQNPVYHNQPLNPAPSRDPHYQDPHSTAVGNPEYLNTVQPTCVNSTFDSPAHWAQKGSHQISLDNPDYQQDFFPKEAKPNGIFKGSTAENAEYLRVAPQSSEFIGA
Chain of EGFR (human), P00533 [Antiproliferation of H195 Cells Having Overexpressed EGFR T790 Mutant Kinase] (P00533 whole entry, looked up, change not shown): as the sequence (P00533 whole entry, looked up) above
Chain of EGFR (human), P00533 [Assessment of EGFR T790 Mutant Kinase Activity] (P00533 whole entry, looked up, change not shown): as the sequence (P00533 whole entry, looked up) above

IC50 [1] [nM]	SMILES	IC50 [2] [nM]	IC50 [3] [nM]	IC50 [4] [nM]
	C=CC(=O)N1CCC(Oc2cc3c(Nc4ccc(F)c(Cl)c4F)ncnc3cc2OC)CC1		24	
17	C=CC(=O)N1CCC(Oc2cc3c(Nc4ccc(F)c(Cl)c4)ncnc3cc2OC)CC1	16		
4	C=CC(=O)N1CCC(Oc2cc3c(Nc4ccc(F)c(Cl)c4F)ncnc3cc2OCCOC)CC1	47		
0.8	C=CC(=O)N1CC[C@@H](Oc2cc3c(Nc4ccc(Cl)c(Cl)c4F)ncnc3cc2OC)C[C@@H]1C(N)=O	1.1		
9	C=CC(=O)N1CCC(Oc2cc3c(Nc4cccc(Cl)c4C)ncnc3cc2OC)CC1			
4	COc1cc2ncnc(Nc3ccc(F)c(Cl)c3F)c2cc1O[C@H]1CCN(C(=O)/C=C/CN(C)C)C1			
43	C=CC(=O)N1CCC(Oc2cc3c(Nc4ccc(F)c(F)c4F)ncnc3cc2OC)CC1			
2.4	COc1cc2ncnc(Nc3ccc(F)c(Cl)c3F)c2cc1OC1CN(C(=O)/C=C\Cl)C1	19		
8	COc1cc2ncnc(Nc3ccc(F)c(Cl)c3F)c2cc1O[C@H]1CCN(C(=O)/C=C/CN2CCCC2)C1			
8.3	C=CC(=O)N1CC[C@H](Oc2cc3c(Nc4ccc(F)c(Cl)c4F)ncnc3cc2OC)C[C@H]1C(=O)NCCN1CCOCC1			
6	COc1cc2ncnc(Nc3ccc(F)c(Cl)c3F)c2cc1OC1CCN(C(=O)/C=C\CN(C)C)CC1			
29	C=C(C)C(=O)N1CC(Oc2cc3c(Nc4ccc(F)c(Cl)c4F)ncnc3cc2OC)C1			
3.1	C=C(NC(C)=O)C(=O)N1CC(Oc2cc3c(Nc4ccc(F)c(Cl)c4F)ncnc3cc2OC)C1	50		
8	C=CC(=O)N1CCC(Oc2cc3c(Nc4ccc(F)c(C#N)c4)ncnc3cc2OC)CC1			
11	C=CC(=O)N1CCC(Oc2cc3c(Nc4cccc(C(F)(F)F)c4F)ncnc3cc2OC)CC1			
4.6	C=CC(=O)N1CCC(Oc2cc3c(Nc4ccc(Cl)cc4)ncnc3cc2OC)CC1			
33	COc1cc2ncnc(Nc3ccc(F)c(Cl)c3F)c2cc1O[C@H]1CCN(C(=O)C#CCN(C)C)C1			
305	C=CC(=O)N1CCC(Oc2cc3c(Nc4cccc(SC)c4)ncnc3cc2OC)CC1			
2.4	C=C(CN1CCCCC1)C(=O)N1CC(Oc2cc3c(Nc4cccc(Cl)c4F)ncnc3cc2OC)C1			

IC50 [1] [nM]	SMILES	IC50 [2] [nM]	IC50 [3] [nM]	IC50 [4] [nM]
300	C=CC(=O)N1CCC(Oc2cc3c(Nc4cccc(S)c4)ncnc3cc2OC)CC1			
50	C=C(NC(C)=O)C(=O)N1CCC(Oc2cc3c(Nc4ccc(Cl)c(Cl)c4F)ncnc3cc2OC)CC1			
85	C/C=C/C(=O)N1CC[C@H](Oc2cc3c(Nc4ccc(F)c(Cl)c4F)ncnc3cc2OC)C1			
23	C=CC(=O)N1CCC(Oc2cc3c(Nc4ccc(C(C)C)cc4)ncnc3cc2OC)CC1			
10	C=C(CN1CCOCC1)C(=O)N1CCC(Oc2cc3c(Nc4ccc(F)c(Cl)c4F)ncnc3cc2OC)CC1			
10	C=CC(=O)N1CC[C@H](Oc2cc3c(Nc4ccc(F)c(Cl)c4F)ncnc3cc2OC)C[C@H]1C(=O)NO			
41	COc1cc2ncnc(Nc3ccc(F)c(Cl)c3F)c2cc1OC1CCN(C(=O)/C=C\C(=O)O)CC1			
7	C=CC(=O)N1CCC(Oc2cc3c(Nc4ccc(Br)c(F)c4)ncnc3cc2OC)CC1			
76	COc1cc2ncnc(Nc3cccc(Cl)c3F)c2cc1OC1CCN(C(=O)/C=C/CN(C)C)CC1			
26	C=CC(=O)N1CCC(Oc2cc3c(Nc4cccc(CCl)c4)ncnc3cc2OC)CC1			
28	CCN(CC)C/C=C/C(=O)N1CC[C@H](Oc2cc3c(Nc4ccc(F)c(Cl)c4F)ncnc3cc2OC)C1			
9	COC(=O)/C=C\C(=O)N1CCC(Oc2cc3c(Nc4ccc(F)c(Cl)c4F)ncnc3cc2OC)CC1			
65	C=CC(=O)N1CCC(Oc2cc3c(Nc4ccccc4Cl)ncnc3cc2OC)CC1			
44	COc1cc2ncnc(Nc3ccc(F)c(Cl)c3F)c2cc1OC1CN(C(=O)/C=C/Cl)C1			
39	COc1cc2ncnc(Nc3cccc(Cl)c3F)c2cc1OC1CCN(C(=O)CO)CC1			204
400	C=CC(=O)Nc1cccc(Nc2ncnc3cc(OC)c(OC4CCN(C(=O)C=C)CC4)cc23)c1			
109	C=CC(=O)N1CCC(Oc2cc3c(Nc4ccc(O)c(Cl)c4)ncnc3cc2OC)CC1			
8	C=CC(=O)N1CCC(Oc2cc3c(Nc4ccc(F)c(C)c4)ncnc3cc2OC)CC1			

SMILES	IC50 [1] [nM]	IC50 [2] [nM]	IC50 [3] [nM]	IC50 [4] [nM]
C=CC(=O)N1CCC(Oc2cc3c(Nc4cccc(C)c4)ncnc3cc2OC)CC1	1	236		
C=CC(=O)N1CC[C@@H](Oc2cc3c(Nc4ccc(F)c(Cl)c4F)ncnc3cc2OC)C[C@@H]1C(=O)NC	2.9	2.6		
C=CC(=O)N1CC[C@H](Oc2cc3c(N[C@H](C)c4ccccc4)ncnc3cc2OC)C1	8	167		
C=CC(=O)N1CCC(Oc2cc3c(Nc4cccc(Cl)c4F)ncnc3cc2OC)CC1	2	22		
C=CC(=O)N1CC[C@H](Oc2cc3c(Nc4ccc(F)c(Cl)c4F)ncnc3cc2OC)C[C@H]1C(N)=O	3	5.2		
C=CC(=O)N1CC[C@H](Oc2cc3c(Nc4ccc(F)c(Cl)c4F)ncnc3cc2OC)C[C@H]1C(=O)NCCS(C)(=O)=O	2.2	50.4		
C=CC(=O)N1CCC(Oc2cc3c(Nc4cccc(Br)c4)ncnc3cc2OC)CC1	1	96		
C=C(CN1CCOCC1)C(=O)N1CC(Oc2cc3c(Nc4ccc(F)c(Cl)c4F)ncnc3cc2OC)C1	1.5	8		
C=CC(=O)N1CC[C@H](Oc2cc3c(Nc4ccc(F)c(Cl)c4F)ncnc3cc2OC)C1	4	80		3
C=CC(=O)N1CCC(Oc2cc3c(Nc4cccc(C=C)c4)ncnc3cc2OC)CC1	1.9	27		
C=CC(=O)N1CC[C@H](Oc2cc3c(Nc4ccc(Br)c(Cl)c4F)ncnc3cc2OC)C1	5	55		
C=CC(=O)N1CCC(Oc2cc3c(Nc4ccc(Br)c(C)c4)ncnc3cc2OC)CC1	6	48		
C=CC(=O)N1CC(Oc2cc3c(Nc4ccc(F)c(Cl)c4F)ncnc3cc2OC)C1	0.3	1.5		
C=CC(=O)N1CC(Oc2cc3c(N[C@H](C)c4ccccc4)ncnc3cc2OC)C1	7	156		
C=C(CN(C)C)C(=O)N1CC(Oc2cc3c(Nc4ccc(F)c(Cl)c4F)ncnc3cc2OC)C1	41	11		
C=CC(=O)N1CC(Oc2cc3c(Nc4cccc(Cl)c4F)ncnc3cc2OC)C1	1.6	9		
C=CC(=O)N1CC[C@H](Oc2cc3c(Nc4ccc(F)c(Cl)c4F)ncnc3cc2OC)C[C@H]1C(=O)NCCSC	2.4	5		
C=CC(=O)N1CC[C@H](Oc2cc3c(Nc4ccc(F)c(Cl)c4F)ncnc3cc2OC)C[C@H]1C(=O)OC	5			
C=CC(=O)N1CC[C@H](Oc2cc3c(Nc4ccc(F)c(Cl)c4F)ncnc3cc2OC)C[C@H]1C(=O)NCCN(C)C	5.7	30		
C=CC(=O)N1CC[C@H](Oc2ccc3ncnc(Nc4ccc(F)c(Cl)c4F)c3c2)C1	5	413		
C=CC(=O)N1CC[C@@H](Oc2cc3c(Nc4ccc(F)c(Cl)c4F)ncnc3cc2OC)C1	222			
C=CC(=O)N1CC(Oc2cc3c(Nc4cccc(Cl)c4)ncnc3cc2OC)C1	1.6	17.7		
C=CC(=O)N1CC[C@@H](Oc2cc3c(Nc4ccc(F)c(Cl)c4F)ncnc3cc2OC)C[C@@H]1C(N)=O	0.8	5.2		
C=CC(=O)N1CC[C@H](Oc2cc3c(Nc4ccc(F)c(Cl)c4F)ncnc3cc2OC)C[C@H]1C(=O)NCCO	5.4	39		
C=CC(=O)N1CC[C@@H](Oc2cc3c(Nc4ccc(F)c(Cl)c4F)ncnc3cc2OC)C[C@@H]1C(=O)OC	0.7	5.4		
C=CC(=O)N1CC[C@H](Oc2cc3c(Nc4ccc(F)c(Cl)c4F)ncnc3cc2OC)C[C@H]1C(=O)NCCOC	3.4	11		
